Assay results as given in publication PMC12030059, “Mechanistic Advances in the Therapeutic Application of Bixin for Lung Inflammation In Vitro and In Vivo” (Pharmaceuticals, 2025).

Key:
[1] = PAMPA-GIT permeability assay; type: in vitro ADME; settings: for Experimental Fa: absorbed fraction; for Papp: read-out: Experimental Pe; for Classification (intestinal permeability): by absorbed fraction
From the text: The parallel artificial membrane permeability assay (PAMPA) utilizes a 96-well plate system in a “sandwich” format, where one plate is positioned above another (PAMPA). The upper plate, known as the donor compartment, contains the compounds (test or control) dissolved in a buffered solution. […] The lipid composition of the PVDF filter varies depending on the type of permeability test. For gastrointestinal tract (GIT) permeability assessments, L-α-soy phosphatidylcholine in dodecane is used. Optical density values are measured at specified wavelengths for each compound and compared against controls. For GIT permeability, the absorbed fraction (Fa%) and permeability (Pe) are determined. […] Compounds for these assays were diluted from a 10 mM stock solution. These assays were conducted using a 1 mg/mL stock solution per compound.

[2] = ref C. Zhu et al. Eur. J. Med. Chem. 37 (2002) 399–407 [22], cited from earlier work
[3] = L-α-soy phosphatidylcholine in dodecane

Row | SMILES | Experimental Pe [1, 3] | Experimental Fa [1] [%] | Papp [1, 3] [×10⁻⁶ cm/s] | Classification (intestinal permeability) [1] | Literature Fa ([2]; absorbed fraction) [%] | Literature Pe ([2]; artificial membrane permeability)
1 | Nc1nc2c(ncn2COCCO)c(=O)[nH]1 [Acyclovir, acyclovir] | 0.36 10^−6 cm/s | 12.64 | – | – | – | –
2 | CO/N=C(\C(=O)N[C@@H]1C(=O)N2C(C(=O)O)=C(CSc3nc(=O)c(=O)[nH]n3C)CS[C@H]12)c1csc(N)n1 [Ceftriaxone, ceftriaxone] | – | 18.19 | 0.53 | Low (low (0–29%)) | 1 | 0.1 10^−6 cm/s
3 | O=c1ccc2ccccc2o1 [Coumarin, coumarin] | – | 99.99 | 25.2 | High (high (70–100%)) | – | –
4 | CCn1cc(C(=O)O)c(=O)c2cc(F)c(N3CCNCC3)cc21 [Norfloxacin, norfloxacin] | – | – | 1.56 | Medium (medium (30–69%)) | – | –
